For 12 compounds, inhibition results are on record in US9371320B2, “Heterocyclic compound” (TAKEDA PHARMACEUTICAL COMPANY LIMITED, priority 2012, dated 2016).

For one assay, the target named is T1, Tyk2 (Homo sapiens, UniProt P29597).
T1 construct: purchased Invitrogen
Put plainly: Tyk2 enzyme inhibition test (LANCE method). The class given is biochemical. The conditions noted are these: for inhibition at 1 µM: test compound 1 μM, read-out: Inhibitory rate (%) Tyk2 1 μM. The essentials: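 Recombinant Tyk2 (375 ng/mL stock) with ULight-JAK1 peptide (300 nM stock) and ATP (30 μM stock) in HEPES pH 7.5/MgCl2/EGTA/DTT buffer, 1 h at room temperature. Stopped with EDTA plus Eu-anti-phosphotyrosine antibody; TR-FRET read at 665 nm after 1 h. No-enzyme wells define 100% inhibition.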
On the technique in general: Time-resolved FRET reads energy transfer from a long-lived donor to a nearby acceptor.

The target of the next assay is T2, JAK1 (Homo sapiens, UniProt P23458).
T2 construct: purchased Invitrogen
T2 sequence (P23458 whole entry): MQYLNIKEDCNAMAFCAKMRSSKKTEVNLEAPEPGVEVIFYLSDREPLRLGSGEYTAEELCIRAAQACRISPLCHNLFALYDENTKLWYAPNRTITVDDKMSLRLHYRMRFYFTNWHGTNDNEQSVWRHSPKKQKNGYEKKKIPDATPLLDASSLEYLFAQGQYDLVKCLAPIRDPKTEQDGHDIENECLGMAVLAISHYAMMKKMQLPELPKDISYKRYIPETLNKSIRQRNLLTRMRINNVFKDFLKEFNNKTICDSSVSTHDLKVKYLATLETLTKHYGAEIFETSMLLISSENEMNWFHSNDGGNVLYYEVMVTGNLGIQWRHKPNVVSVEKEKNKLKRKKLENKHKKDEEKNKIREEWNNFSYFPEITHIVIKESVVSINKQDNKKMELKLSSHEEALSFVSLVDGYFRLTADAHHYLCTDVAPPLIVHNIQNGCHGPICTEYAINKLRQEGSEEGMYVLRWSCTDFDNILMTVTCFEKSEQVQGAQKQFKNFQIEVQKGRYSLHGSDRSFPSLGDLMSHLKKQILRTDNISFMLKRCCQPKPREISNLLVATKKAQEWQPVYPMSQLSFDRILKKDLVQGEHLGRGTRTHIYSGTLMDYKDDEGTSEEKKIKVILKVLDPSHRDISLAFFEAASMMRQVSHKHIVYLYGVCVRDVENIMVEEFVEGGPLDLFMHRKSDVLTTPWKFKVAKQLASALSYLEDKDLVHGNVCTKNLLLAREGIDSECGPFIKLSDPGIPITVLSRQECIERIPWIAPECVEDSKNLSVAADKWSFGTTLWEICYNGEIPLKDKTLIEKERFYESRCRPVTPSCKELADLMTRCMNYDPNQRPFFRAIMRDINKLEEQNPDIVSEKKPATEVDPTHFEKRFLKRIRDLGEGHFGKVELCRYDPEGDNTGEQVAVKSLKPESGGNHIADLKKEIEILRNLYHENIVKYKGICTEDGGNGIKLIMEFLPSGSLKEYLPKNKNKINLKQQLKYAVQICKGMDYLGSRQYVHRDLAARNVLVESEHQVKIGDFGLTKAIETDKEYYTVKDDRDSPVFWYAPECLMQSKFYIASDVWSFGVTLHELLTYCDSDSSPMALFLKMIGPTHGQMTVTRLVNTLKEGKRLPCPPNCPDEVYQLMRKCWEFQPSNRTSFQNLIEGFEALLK
The assay can be described thus: JAK1 enzyme inhibition test (LANCE method). The following applies: for inhibition at 1 µM: test compound 1 μM, read-out: Inhibitory rate (%) JAK1 1 μM; for inhibition at 10 µM: read-out: Inhibitory rate (%) JAK1 10 μM. The format is biochemical. The method in brief: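 TR-FRET (LANCE) kinase assay using JAK1 at 187.5 ng/mL, ULight-JAK1 peptide at 300 nM and ATP at 150 μM, given as solution concentrations before mixing. Buffer was 50 mM HEPES pH 7.5 with 10 mM MgCl2 and 2 mM DTT, and the reaction ran 1 h at room temperature. Eu anti-phosphotyrosine signal at 665 nm was expressed relative to a no-enzyme well, taken as 100% inhibition.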

Read-outs that look alike come from different tables or passages of the source.

T1 sequence (P29597 whole entry): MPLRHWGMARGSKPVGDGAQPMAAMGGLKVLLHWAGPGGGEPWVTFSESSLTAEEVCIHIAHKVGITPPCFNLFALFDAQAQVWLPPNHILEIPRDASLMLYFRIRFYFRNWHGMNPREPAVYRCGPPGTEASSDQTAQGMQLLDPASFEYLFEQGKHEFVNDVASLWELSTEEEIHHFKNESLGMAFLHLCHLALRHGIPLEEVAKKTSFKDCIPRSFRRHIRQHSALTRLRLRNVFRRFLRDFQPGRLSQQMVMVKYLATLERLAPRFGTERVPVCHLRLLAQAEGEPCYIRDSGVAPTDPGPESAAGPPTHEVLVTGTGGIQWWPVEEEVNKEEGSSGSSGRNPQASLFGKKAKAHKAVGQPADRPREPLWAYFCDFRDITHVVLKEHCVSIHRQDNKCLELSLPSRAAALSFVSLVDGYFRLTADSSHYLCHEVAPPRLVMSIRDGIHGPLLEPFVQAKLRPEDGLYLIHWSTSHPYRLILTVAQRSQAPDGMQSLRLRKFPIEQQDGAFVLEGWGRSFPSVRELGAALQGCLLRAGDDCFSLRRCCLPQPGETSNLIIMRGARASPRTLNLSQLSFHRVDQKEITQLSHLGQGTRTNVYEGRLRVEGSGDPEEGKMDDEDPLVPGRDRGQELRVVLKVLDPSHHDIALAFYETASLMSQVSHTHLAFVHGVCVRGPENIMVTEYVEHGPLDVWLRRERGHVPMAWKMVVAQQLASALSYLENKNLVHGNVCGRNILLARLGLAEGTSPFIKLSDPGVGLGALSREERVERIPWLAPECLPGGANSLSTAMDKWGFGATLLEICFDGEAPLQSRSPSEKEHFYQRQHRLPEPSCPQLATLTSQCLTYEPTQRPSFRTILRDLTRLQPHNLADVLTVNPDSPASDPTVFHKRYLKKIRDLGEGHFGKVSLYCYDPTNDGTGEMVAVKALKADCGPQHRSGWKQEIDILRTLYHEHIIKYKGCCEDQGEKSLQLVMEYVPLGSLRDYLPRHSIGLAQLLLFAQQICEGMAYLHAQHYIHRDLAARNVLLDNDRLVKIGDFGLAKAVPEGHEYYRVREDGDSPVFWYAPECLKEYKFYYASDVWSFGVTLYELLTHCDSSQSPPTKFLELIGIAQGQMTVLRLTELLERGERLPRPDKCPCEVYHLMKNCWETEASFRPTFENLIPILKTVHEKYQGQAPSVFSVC

Regarding `COC(=O)c1ccc(-c2nn(-c3c(F)cccc3F)c3cc[nH]c(=O)c23)cc1` [Example 260, methyl 4-(1-(2,6-difluorophenyl)-4-oxo-4,5-dihydro-1H-pyrazolo[4,3-c]pyridin-3-yl)benzoate], the values for the inhibition at 1 µM at Tyk2 and on JAK1 were 94% and 77%, respectively.

With `N#CCc1ccc(-c2nn(-c3c(F)cccc3F)c3c(Cl)c[nH]c(=O)c23)cc1` [Example 116, (4-(7-chloro-1-(2,6-difluorophenyl)-4-oxo-4,5-dihydro-1H-pyrazolo[4,3-c]pyridin-3-yl)phenyl)acetonitrile], the inhibition at 1 µM at Tyk2 came out at 99%; on JAK1, 89%.

Consider `N#Cc1cccc(-c2nn(C3CCCC3)c3cc[nH]c(=O)c23)c1` [Example 202, 3-(1-cyclopentyl-4-oxo-4,5-dihydro-1H-pyrazolo[4,3-c]pyridin-3-yl)benzonitrile], for which, on Tyk2, the inhibition at 1 µM was 87%. The inhibition at 10 µM at JAK1 (test compound 10 μM (Ex. 182-220), beside Tyk2 1 μM) was determined as 80%.

As for `CN(C)C(=O)c1cc(-c2cn(C3CCCC3)c3c(C#N)c[nH]c(=O)c23)cs1` [Example 107, 4-(7-cyano-1-cyclopentyl-4-oxo-4,5-dihydro-1H-pyrrolo[3,2-c]pyridin-3-yl)-N,N-dimethylthiophene-2-carboxamide], the figures for the inhibition at 1 µM on Tyk2 and at JAK1 were 98% and 96%, respectively.

As to `NC(=O)c1ccc(F)c(-c2nn(-c3c(F)cccc3F)c3cc[nH]c(=O)c23)c1` [Example 267, 3-(1-(2,6-difluorophenyl)-4-oxo-4,5-dihydro-1H-pyrazolo[4,3-c]pyridin-3-yl)-4-fluorobenzamide], the inhibition at 10 µM at Tyk2 (test compound 10 μM, read-out: Inhibitory rate (%) Tyk2 10 μM) was found to be 31%; on JAK1 (test compound 10 μM) it was 17%.

Turning to `CCC(COC)n1cc(-c2ccc(CC#N)cc2)c2c(=O)[nH]ccc21` (stereo not drawn) [Example 20, (4-(1-(1-methoxybutan-2-yl)-4-oxo-4,5-dihydro-1H-pyrrolo[3,2-c]pyridin-3-yl)phenyl)acetonitrile], the inhibition at 1 µM is 35% on Tyk2 and 59% at JAK1.

With `N#CCOc1ccc(-c2nn(-c3c(F)cccc3F)c3c(Cl)c[nH]c(=O)c23)cc1` [Example 167, (4-(7-chloro-1-(2,6-difluorophenyl)-4-oxo-4,5-dihydro-1H-pyrazolo[4,3-c]pyridin-3-yl)phenoxy)acetonitrile], the inhibition at 1 µM on Tyk2 turned out to be 97%; on JAK1, 53%.

In the case of `O=c1[nH]ccc2c1c(-c1ccc(N3CCOCC3)cc1)nn2-c1c(F)cc(F)cc1F` [Example 308, 3-(4-(morpholin-4-yl)phenyl)-1-(2,4,6-trifluorophenyl)-1,5-dihydro-4H-pyrazolo[4,3-c]pyridin-4-one], the figures for the inhibition at 1 µM on Tyk2 and at JAK1 were 98% and 91%, respectively.

As for `Nc1cc(F)c(-n2nc(-c3ccc(S(N)(=O)=O)cc3)c3c(=O)[nH]ccc32)c(F)c1` [Example 303, 4-(1-(4-amino-2,6-difluorophenyl)-4-oxo-4,5-dihydro-1H-pyrazolo[4,3-c]pyridin-3-yl)benzenesulfonamide], the inhibition at 1 µM turned out to be 100% on Tyk2 and 99% at JAK1.

As to `NS(=O)(=O)c1ccc(-c2nn(CC3COC3)c3cc[nH]c(=O)c23)cc1` [Example 105, 4-(1-(oxetan-3-ylmethyl)-4-oxo-4,5-dihydro-1H-pyrazolo[4,3-c]pyridin-3-yl)benzenesulfonamide], the inhibition at 1 µM at Tyk2 was found to be 66%; at JAK1 it was 88%.

For the compound `N#Cc1c[nH]c(=O)c2c(-c3ccc(C(N)=O)cc3)cn(C3CCCC3)c12` [Example 81, 4-(7-cyano-1-cyclopentyl-4-oxo-4,5-dihydro-1H-pyrrolo[3,2-c]pyridin-3-yl)benzamide], the inhibition at 1 µM is 97% at Tyk2 and 62% at JAK1.

`CNS(=O)(=O)c1ccc(-c2nn(C3CCCC3)c3cc[nH]c(=O)c23)cc1` [Example 223, 4-(1-cyclopentyl-4-oxo-4,5-dihydro-1H-pyrazolo[4,3-c]pyridin-3-yl)-N-methylbenzenesulfonamide]: the results for the inhibition at 1 µM on Tyk2 and at JAK1 were 97% and 99%, respectively.
